Tested on: MRC-9 cells
Assay: Multiplex high-content viability assessment
Type: cell-based
Conditions: for Cell count normalized to cells treated with DMSO control / Cell count per well / Population Fragmented Nuclei (%) / Population Healthy Nuclei (%) / Population Pyknosed Nuclei (%) / Population apoptotic cell (%) / Population cell that influence microtubule strucutre (%) / Population with increased mitochondrial mass (%) / Population with membrane disruption (%): human fibroblast
Protocol: To assess the influence on cell health, a high-content screening in living cells called the multiplex high-content assay, as described previously by Tjaden et al., was performed.[38] In brief, HEK293T (ATCC CRL-1573) and U2OS (ATCCHTB-96) were cultured in DMEM plus L-glutamine (high glucose) supplemented by 10% FBS (Gibco) and penicillin/streptomycin (Gibco). MRC-9 fibroblasts ([…]) were cultured in EMEM plus L-glutamine supplemented by 10% FBS (Gibco) and penicillin/streptomycin (Gibco). Cells were seeded at a density of 1250 cells per well in a 384-well plate in a culture medium (cell culture microplate, PS, f-bottom, μClear, 781091, Greiner), with a volume of 50 μL per well. All outer wells were filled with 100 μL of PBS buffer (Gibco). […] The cell shape and fluorescence were measured before treatment and 12, 24, and 48 h after compound treatment using the CQ1 high-content confocal microscope (Yokogawa, Musashino, Japan). […] The compounds were tested at 1 and 10 μM, respectively. Acquired images of the cells were processed using Yokogawa CellPathfinder software (v3.04.02.02). […] Results were normalized to cells exposed to 0.1% DMSO. All compounds were tested in biological duplicates, and SEM (standard error of mean) was calculated of biological duplicates.

CN1C(=O)[C@@H](N2CCc3c(nn(Cc4ccccc4)c3C(N)=O)C2=O)COc2cc(Cl)ccc21 [Compound 10, (S)-2-benzyl-6-(8-chloro-5-methyl-4-oxo-2,3,4,5-tetrahydrobenzo[b][1,4]oxazepin-3-yl)-7-oxo-4,5,6,7-tetrahydro-2H-pyrazolo[3,4-c]pyridine-3-carboxamide]
Cell count normalized to cells treated with DMSO control (1 µM, 0 h, replicate 1): 0.9542
Cell count per well (1 µM, 0 h, replicate 1): 143
Population Fragmented Nuclei (%) (1 µM, 0 h, replicate 1): 19.86%
Population Healthy Nuclei (%) (1 µM, 0 h, replicate 1): 56.74%
Population Pyknosed Nuclei (%) (1 µM, 0 h, replicate 1): 23.40%
Population apoptotic cell (%) (1 µM, 0 h, replicate 1): 42.42%
Population cell that influence microtubule strucutre (%) (1 µM, 0 h, replicate 1): 27.50%
Population with increased mitochondrial mass (%) (1 µM, 0 h, replicate 1): 11.25%
Population with membrane disruption (%) (1 µM, 0 h, replicate 1): 1.25%
Cell count normalized to cells treated with DMSO control (1 µM, 0 h, replicate 2): 1.071
Cell count per well (1 µM, 0 h, replicate 2): 191
Population Fragmented Nuclei (%) (1 µM, 0 h, replicate 2): 17.68%
Population Healthy Nuclei (%) (1 µM, 0 h, replicate 2): 56.35%
Population Pyknosed Nuclei (%) (1 µM, 0 h, replicate 2): 25.97%
Population apoptotic cell (%) (1 µM, 0 h, replicate 2): 19.15%
Population cell that influence microtubule strucutre (%) (1 µM, 0 h, replicate 2): 32.35%
Population with increased mitochondrial mass (%) (1 µM, 0 h, replicate 2): 4.90%
Population with membrane disruption (%) (1 µM, 0 h, replicate 2): 4.90%
Cell count normalized to cells treated with DMSO control (1 µM, 12 h, replicate 1): 0.9165
Cell count per well (1 µM, 12 h, replicate 1): 138
Population Fragmented Nuclei (%) (1 µM, 12 h, replicate 1): 13.43%
Population Healthy Nuclei (%) (1 µM, 12 h, replicate 1): 56.72%
Population Pyknosed Nuclei (%) (1 µM, 12 h, replicate 1): 29.85%
Population apoptotic cell (%) (1 µM, 12 h, replicate 1): 55.00%
Population cell that influence microtubule strucutre (%) (1 µM, 12 h, replicate 1): 31.58%
Population with increased mitochondrial mass (%) (1 µM, 12 h, replicate 1): 3.95%
Population with membrane disruption (%) (1 µM, 12 h, replicate 1): 0.00%
Cell count normalized to cells treated with DMSO control (1 µM, 12 h, replicate 2): 1.033
Cell count per well (1 µM, 12 h, replicate 2): 172
Population Fragmented Nuclei (%) (1 µM, 12 h, replicate 2): 18.52%
Population Healthy Nuclei (%) (1 µM, 12 h, replicate 2): 51.23%
Population Pyknosed Nuclei (%) (1 µM, 12 h, replicate 2): 30.25%
Population apoptotic cell (%) (1 µM, 12 h, replicate 2): 36.73%
Population cell that influence microtubule strucutre (%) (1 µM, 12 h, replicate 2): 48.19%
Population with increased mitochondrial mass (%) (1 µM, 12 h, replicate 2): 3.61%
Population with membrane disruption (%) (1 µM, 12 h, replicate 2): 9.64%
Cell count normalized to cells treated with DMSO control (1 µM, 24 h, replicate 1): 0.9086
Cell count per well (1 µM, 24 h, replicate 1): 137
Population Fragmented Nuclei (%) (1 µM, 24 h, replicate 1): 12.03%
Population Healthy Nuclei (%) (1 µM, 24 h, replicate 1): 64.66%
Population Pyknosed Nuclei (%) (1 µM, 24 h, replicate 1): 23.31%
Population apoptotic cell (%) (1 µM, 24 h, replicate 1): 64.52%
Population cell that influence microtubule strucutre (%) (1 µM, 24 h, replicate 1): 32.56%
Population with increased mitochondrial mass (%) (1 µM, 24 h, replicate 1): 8.14%
Population with membrane disruption (%) (1 µM, 24 h, replicate 1): 2.33%
Cell count normalized to cells treated with DMSO control (1 µM, 24 h, replicate 2): 1.049
Cell count per well (1 µM, 24 h, replicate 2): 173
Population Fragmented Nuclei (%) (1 µM, 24 h, replicate 2): 26.25%
Population Healthy Nuclei (%) (1 µM, 24 h, replicate 2): 51.25%
Population Pyknosed Nuclei (%) (1 µM, 24 h, replicate 2): 22.50%
Population apoptotic cell (%) (1 µM, 24 h, replicate 2): 47.22%
Population cell that influence microtubule strucutre (%) (1 µM, 24 h, replicate 2): 46.34%
Population with increased mitochondrial mass (%) (1 µM, 24 h, replicate 2): 3.66%
Population with membrane disruption (%) (1 µM, 24 h, replicate 2): 8.54%
Cell count normalized to cells treated with DMSO control (1 µM, 48 h, replicate 1): 0.9623
Cell count per well (1 µM, 48 h, replicate 1): 146
Population Fragmented Nuclei (%) (1 µM, 48 h, replicate 1): 16.91%
Population Healthy Nuclei (%) (1 µM, 48 h, replicate 1): 63.97%
Population Pyknosed Nuclei (%) (1 µM, 48 h, replicate 1): 19.12%
Population apoptotic cell (%) (1 µM, 48 h, replicate 1): 76.92%
Population cell that influence microtubule strucutre (%) (1 µM, 48 h, replicate 1): 25.29%
Population with increased mitochondrial mass (%) (1 µM, 48 h, replicate 1): 4.60%
Population with membrane disruption (%) (1 µM, 48 h, replicate 1): 1.15%
Cell count normalized to cells treated with DMSO control (1 µM, 48 h, replicate 2): 1.056
Cell count per well (1 µM, 48 h, replicate 2): 172
Population Fragmented Nuclei (%) (1 µM, 48 h, replicate 2): 23.95%
Population Healthy Nuclei (%) (1 µM, 48 h, replicate 2): 59.28%
Population Pyknosed Nuclei (%) (1 µM, 48 h, replicate 2): 16.77%
Population apoptotic cell (%) (1 µM, 48 h, replicate 2): 75.00%
Population cell that influence microtubule strucutre (%) (1 µM, 48 h, replicate 2): 54.55%
Population with increased mitochondrial mass (%) (1 µM, 48 h, replicate 2): 5.05%
Population with membrane disruption (%) (1 µM, 48 h, replicate 2): 7.07%
cytotoxicity (1 μM, MRC-9): no cytotoxicity
Cell count normalized to cells treated with DMSO control (10 µM, 0 h, replicate 1): 1.081
Cell count per well (10 µM, 0 h, replicate 1): 162
Population Fragmented Nuclei (%) (10 µM, 0 h, replicate 1): 15.72%
Population Healthy Nuclei (%) (10 µM, 0 h, replicate 1): 65.41%
Population Pyknosed Nuclei (%) (10 µM, 0 h, replicate 1): 18.87%
Population apoptotic cell (%) (10 µM, 0 h, replicate 1): 33.33%
Population cell that influence microtubule strucutre (%) (10 µM, 0 h, replicate 1): 22.12%
Population with increased mitochondrial mass (%) (10 µM, 0 h, replicate 1): 9.62%
Population with membrane disruption (%) (10 µM, 0 h, replicate 1): 0.96%
Cell count normalized to cells treated with DMSO control (10 µM, 0 h, replicate 2): 0.8971
Cell count per well (10 µM, 0 h, replicate 2): 160
Population Fragmented Nuclei (%) (10 µM, 0 h, replicate 2): 22.07%
Population Healthy Nuclei (%) (10 µM, 0 h, replicate 2): 49.66%
Population Pyknosed Nuclei (%) (10 µM, 0 h, replicate 2): 28.28%
Population apoptotic cell (%) (10 µM, 0 h, replicate 2): 34.15%
Population cell that influence microtubule strucutre (%) (10 µM, 0 h, replicate 2): 44.44%
Population with increased mitochondrial mass (%) (10 µM, 0 h, replicate 2): 9.72%
Population with membrane disruption (%) (10 µM, 0 h, replicate 2): 5.56%
Cell count normalized to cells treated with DMSO control (10 µM, 12 h, replicate 1): 1.162
Cell count per well (10 µM, 12 h, replicate 1): 175
Population Fragmented Nuclei (%) (10 µM, 12 h, replicate 1): 18.93%
Population Healthy Nuclei (%) (10 µM, 12 h, replicate 1): 60.36%
Population Pyknosed Nuclei (%) (10 µM, 12 h, replicate 1): 20.71%
Population apoptotic cell (%) (10 µM, 12 h, replicate 1): 48.57%
Population cell that influence microtubule strucutre (%) (10 µM, 12 h, replicate 1): 53.92%
Population with increased mitochondrial mass (%) (10 µM, 12 h, replicate 1): 8.82%
Population with membrane disruption (%) (10 µM, 12 h, replicate 1): 1.96%
Cell count normalized to cells treated with DMSO control (10 µM, 12 h, replicate 2): 0.8225
Cell count per well (10 µM, 12 h, replicate 2): 137
Population Fragmented Nuclei (%) (10 µM, 12 h, replicate 2): 27.87%
Population Healthy Nuclei (%) (10 µM, 12 h, replicate 2): 49.18%
Population Pyknosed Nuclei (%) (10 µM, 12 h, replicate 2): 22.95%
Population apoptotic cell (%) (10 µM, 12 h, replicate 2): 25.00%
Population cell that influence microtubule strucutre (%) (10 µM, 12 h, replicate 2): 60.00%
Population with increased mitochondrial mass (%) (10 µM, 12 h, replicate 2): 5.00%
Population with membrane disruption (%) (10 µM, 12 h, replicate 2): 3.33%
Cell count normalized to cells treated with DMSO control (10 µM, 24 h, replicate 1): 1.1009
Cell count per well (10 µM, 24 h, replicate 1): 166
Population Fragmented Nuclei (%) (10 µM, 24 h, replicate 1): 25.32%
Population Healthy Nuclei (%) (10 µM, 24 h, replicate 1): 55.06%
Population Pyknosed Nuclei (%) (10 µM, 24 h, replicate 1): 19.62%
Population apoptotic cell (%) (10 µM, 24 h, replicate 1): 54.84%
Population cell that influence microtubule strucutre (%) (10 µM, 24 h, replicate 1): 45.98%
Population with increased mitochondrial mass (%) (10 µM, 24 h, replicate 1): 10.34%
Population with membrane disruption (%) (10 µM, 24 h, replicate 1): 1.15%
Cell count normalized to cells treated with DMSO control (10 µM, 24 h, replicate 2): 0.8977
Cell count per well (10 µM, 24 h, replicate 2): 148
Population Fragmented Nuclei (%) (10 µM, 24 h, replicate 2): 34.56%
Population Healthy Nuclei (%) (10 µM, 24 h, replicate 2): 47.06%
Population Pyknosed Nuclei (%) (10 µM, 24 h, replicate 2): 18.38%
Population apoptotic cell (%) (10 µM, 24 h, replicate 2): 40.00%
Population cell that influence microtubule strucutre (%) (10 µM, 24 h, replicate 2): 65.63%
Population with increased mitochondrial mass (%) (10 µM, 24 h, replicate 2): 9.38%
Population with membrane disruption (%) (10 µM, 24 h, replicate 2): 1.56%
Cell count normalized to cells treated with DMSO control (10 µM, 48 h, replicate 1): 1.1403
Cell count per well (10 µM, 48 h, replicate 1): 173
Population Fragmented Nuclei (%) (10 µM, 48 h, replicate 1): 22.56%
Population Healthy Nuclei (%) (10 µM, 48 h, replicate 1): 61.59%
Population Pyknosed Nuclei (%) (10 µM, 48 h, replicate 1): 15.85%
Population apoptotic cell (%) (10 µM, 48 h, replicate 1): 84.62%
Population cell that influence microtubule strucutre (%) (10 µM, 48 h, replicate 1): 40.59%
Population with increased mitochondrial mass (%) (10 µM, 48 h, replicate 1): 5.94%
Population with membrane disruption (%) (10 µM, 48 h, replicate 1): 0.00%
Cell count normalized to cells treated with DMSO control (10 µM, 48 h, replicate 2): 0.9149
Cell count per well (10 µM, 48 h, replicate 2): 149
Population Fragmented Nuclei (%) (10 µM, 48 h, replicate 2): 33.82%
Population Healthy Nuclei (%) (10 µM, 48 h, replicate 2): 56.62%
Population Pyknosed Nuclei (%) (10 µM, 48 h, replicate 2): 9.56%
Population apoptotic cell (%) (10 µM, 48 h, replicate 2): 46.15%
Population cell that influence microtubule strucutre (%) (10 µM, 48 h, replicate 2): 61.04%
Population with increased mitochondrial mass (%) (10 µM, 48 h, replicate 2): 6.49%
Population with membrane disruption (%) (10 µM, 48 h, replicate 2): 2.60%
impact on tubulin, mitochondrial mass, and cellular permeability in healthy cells (MRC-9, 1 μM (Figure 6)): comparable to that of the 0.1% DMSO control

Source: article PMC12090182, “Repurposing of the RIPK1-Selective Benzo[1,4]oxazepin-4-one Scaffold for the Development of a Type III LIMK1/2 Inhibitor” (ACS Chemical Biology, 2025)
